# In patent US10308655B2, “Method of treating Crohn's disease comprising a TLR2 antagonist” (AJOU UNIVERSITY INDUSTRY-ACADEMIC COOPERATION FOUNDATION, priority 2015, dated 2019):
# Molecular target: T1, TLR2 (Homo sapiens, UniProt O60603)
# T1 construct: host or cells: HEK293-TLR2
# Test: Pam3CSK4-induced IL-8 secretion in HEK293-TLR2 cells (IL-8 ELISA)
# Assay type: cell-based
# Conditions: compound 1 hour then co-treated with 50 nM Pam3CSK4, FIG. 15
# Method: HEK293-TLR2 (expressed at endogenous levels of TLR1) and HEK293-Null cell lines were cultured in 96-well tissue culture plates (BD Biosciences) at a density of 1×10^4 cells/wells, 37° C., 95% air and 5% CO2 for 24 hours. In order to determine the agonist activity, a cell stimulation was achieved by treatment with 50 μM of compound and 50 nM of Pam3CSK4 (Invivogen, San Diego, Calif., USA). In order to determine the antagonist activity, cells were treated with various concentrations of compound for 1 hour and then co-treated with 50 nM of Pam3CSK4. The next day, IL-8 secretion was quantified by human IL-8 ELISA Ready-SET-Go! ® (Second generation) kit (eBioscience, San Diego, Calif., USA) according to the method of the manufacturer's guide, and the quantified results are illustrated in FIG. 15.
# For the dose-dependent analysis of the top three compounds (S06690562, S01688300, S01382085) among the six compounds, the concentrations of the three compounds were varied to 12.5, 25, and 50 μM, and the secretion amount of IL-8 was analyzed as the above method. The results are illustrated in FIG. 16.
# T1 sequence (O60603 21-784): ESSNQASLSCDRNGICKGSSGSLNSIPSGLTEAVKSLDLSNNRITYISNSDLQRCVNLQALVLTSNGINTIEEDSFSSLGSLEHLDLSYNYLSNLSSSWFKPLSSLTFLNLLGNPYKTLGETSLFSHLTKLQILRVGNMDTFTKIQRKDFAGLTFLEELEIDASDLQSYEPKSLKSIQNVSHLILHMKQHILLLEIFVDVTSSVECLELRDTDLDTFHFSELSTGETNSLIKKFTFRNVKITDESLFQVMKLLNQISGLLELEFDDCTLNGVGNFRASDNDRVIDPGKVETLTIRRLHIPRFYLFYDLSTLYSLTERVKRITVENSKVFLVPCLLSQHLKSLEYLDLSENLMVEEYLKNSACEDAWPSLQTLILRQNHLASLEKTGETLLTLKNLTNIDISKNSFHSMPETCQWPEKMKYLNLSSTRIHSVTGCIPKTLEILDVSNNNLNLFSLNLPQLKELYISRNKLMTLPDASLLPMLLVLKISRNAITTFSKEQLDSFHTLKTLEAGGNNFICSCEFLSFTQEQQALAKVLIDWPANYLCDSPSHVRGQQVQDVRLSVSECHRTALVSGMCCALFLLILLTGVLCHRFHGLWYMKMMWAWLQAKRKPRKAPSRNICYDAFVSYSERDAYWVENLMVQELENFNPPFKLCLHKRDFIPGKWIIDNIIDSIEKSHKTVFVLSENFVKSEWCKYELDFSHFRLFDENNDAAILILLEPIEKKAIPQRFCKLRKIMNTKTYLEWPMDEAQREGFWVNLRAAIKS
row,Structure (SMILES),Pam3CSK4-induced IL-8 secretion amount
1,COC(=O)c1c(NC(=O)NCCN2CCOCC2)sc2c1CCC2 [Compound S01382085],greatly reduced
2,CCN(Cc1ccncc1)Cc1cccc(OCC(O)CN2CCC(O)CC2)c1 (centres unmarked) [Compound S01688300],greatly reduced
3,CC1CCCN(C(C)CNC(=O)CCNC(=O)C2CC2C)C1 (centres unmarked) [Compound S02276077],greatly reduced
4,Cc1cc(C)c(NC(=O)CNC(=O)CN(C)CC(=O)NCC(F)(F)F)c(C)c1 [Compound S06690562],greatly reduced
5,CC(C)Oc1cccc(CC(=O)N2CCCN(CC(N)=O)CC2)c1 [Compound S06696686],greatly reduced
